Source: PMC9822769, “The Strange Case: The Unsymmetric Cisplatin-Based Pt(IV) Prodrug [Pt(CH3COO)Cl2(NH3)2(OH)] Exhibits Higher Cytotoxic Activity with respect to Its Symmetric Congeners due to Carrier-Mediated Cellular Uptake” (Bioinorganic Chemistry and Applications, 2022)

Test system: A2780cisR cells
Experiment: Cellular Pt accumulation (accumulation ratio) in A2780cisR cells
Assay type: cell-based, human
Conditions: 4 h CT, 10 μM
Experimental: A2780 and A2780cisR cells were seeded in 10 mm Petri dishes and challenged with complexes under investigation (10 μM) in a complete medium for 4 h. At the end of the exposure, cells were washed three times with PBS, detached from Petri dishes using 0.05% trypsin 1x + 2% EDTA (HyClone, Thermo Fisher), and harvested in a completely fresh medium. An automatic cell counting device (Countess®, Life Technologies) was used to measure the number and mean diameter of each cell necessary to calculate the mean cellular (spherical) volume.
For the analysis of Pt accumulation, cells were transferred to a borosilicate glass tube and centrifuged at 1100 rpm for 5 min at room temperature. […]
The determination of the platinum content was performed by ICP-MS (Thermo Optek X Series 2). […] The instrument settings were optimized to produce the highest platinum sensitivity, and the most abundant isotopes of Pt and In (used as an internal standard) were quantified at m/z 195 and 115, respectively.
The quantity of Pt found in cells and normalized on cell number (cellular Pt accumulation) was expressed as ng of Pt per 10^6 cells. The mean cellular volume, calculated from the actual mean cell diameter measured for each sample (about 12 μm), was used to obtain the volume of 10^6 cells and, finally, the intracellular Pt concentration. […]

For `N.N.[Cl][Pt][Cl]` [Cisplatin, (SP-4-2)-diamminedichloridoplatinum(II)], the “Pt accumulation (AR) in A2780cisR compared with A2780” value was “much lower amounts of Pt than A2780”.
